Test results from PubChem BioAssay AID1963441 (Molecular Pharmacology Branch, DTP, NCI, 2024).

System: NCI-H1876 complex spheroid growth, % test/control
Experiment: Anticancer human tumor NCI-H1876 cell line growth inhibition [Asc];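 also: compound exposure lasted 7 days starting three days after seeding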;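 as to viability, T/C: 100% = DMSO vehicle control wells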
Conditions: for IC50: curve of first compound; for viability, T/C: stronger effect = lower value
Method in brief: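 Concentration series start at each agent's clinical Cmax, or at 10 microM when none is established, and drop in half-log steps; agents are applied alone or together to complex spheroids built with HUVEC and hMSC.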

[1] = second compound 0.0316 µM, first compound 0.0316 µM
[2] = second compound 0.0316 µM, first compound 0.1 µM
[3] = second compound 0.1 µM, first compound 0.0316 µM
[4] = second compound 0.1 µM, first compound 0.1 µM
[5] = second compound 0.316 µM, first compound 0.0316 µM
[6] = second compound 0.316 µM, first compound 0.1 µM
[7] = second compound 1 µM, first compound 0.0316 µM
[8] = second compound 1 µM, first compound 0.1 µM
[9] = second compound 0.00316 µM, first compound 0.0316 µM
[10] = second compound 0.00316 µM, first compound 0.1 µM
[11] = second compound 0.00316 µM, first compound 0.316 µM
[12] = second compound 0.00316 µM, first compound 1 µM
[13] = second compound 0.00316 µM, first compound 3.16 µM
[14] = second compound 0.00316 µM, first compound 10 µM
[15] = second compound 0.01 µM, first compound 0.0316 µM
[16] = second compound 0.01 µM, first compound 0.1 µM
[17] = second compound 0.01 µM, first compound 0.316 µM
[18] = second compound 0.01 µM, first compound 1 µM
[19] = second compound 0.01 µM, first compound 3.16 µM
[20] = second compound 0.01 µM, first compound 10 µM
[21] = second compound 0.0316 µM, first compound 0.316 µM
[22] = second compound 0.0316 µM, first compound 1 µM
[23] = second compound 0.0316 µM, first compound 3.16 µM
[24] = second compound 0.0316 µM, first compound 10 µM
[25] = second compound 0.1 µM, first compound 0.316 µM
[26] = second compound 0.1 µM, first compound 1 µM
[27] = second compound 0.1 µM, first compound 3.16 µM
[28] = second compound 0.1 µM, first compound 10 µM
[29] = second compound 0.316 µM, first compound 0.316 µM
[30] = second compound 0.316 µM, first compound 1 µM
[31] = second compound 0.316 µM, first compound 3.16 µM
[32] = second compound 0.316 µM, first compound 10 µM
[33] = second compound 1 µM, first compound 0.316 µM
[34] = second compound 1 µM, first compound 1 µM
[35] = second compound 1 µM, first compound 3.16 µM
[36] = second compound 1 µM, first compound 10 µM

With `NC1CCC(NC2CC2c2ccccc2)CC1` (stereo unspecified) + Cc1c(S(C)(=O)=O)c(-c2cc(F)cc(N3CCN(c4ccc(NS(=O)(=O)c5ccc(NC(CCN6CCC(C(=O)OCCCP(=O)(O)O)CC6)CSc6ccccc6)c(S(=O)(=O)C(F)(F)F)c5)cc4)CC3)c2)c(-c2ccc(Cl)cc2)n1C(C)C the IC50 (second compound 0.0316 µM) was over 0.1 µM, the IC50 (second compound 0.1 µM) was over 0.1 µM and the IC50 (second compound 0.316 µM) was over 0.1 µM. It also gave an IC50 (second compound 1 µM) of over 0.1 µM, an IC50 (second compound 3.16 µM) of over 0.1 µM and an IC50 (second compound 10 µM) of over 0.1 µM. For the same compound, the viability, T/C (second compound 0.0316 µM, first compound 0.000316 µM) was 111%, the viability, T/C (second compound 0.0316 µM, first compound 0.001 µM) was 101% and the viability, T/C (second compound 0.0316 µM, first compound 0.00316 µM) was 99.3%. The viability, T/C (second compound 0.0316 µM, first compound 0.01 µM) was 106%, the viability, T/C [1] was 109% and the viability, T/C [2] was 119%. The viability, T/C (second compound 0.1 µM, first compound 0.000316 µM) was 114%, the viability, T/C (second compound 0.1 µM, first compound 0.001 µM) was 103% and the viability, T/C (second compound 0.1 µM, first compound 0.00316 µM) was 105%. For the same compound, the viability, T/C (second compound 0.1 µM, first compound 0.01 µM) was 110%, the viability, T/C [3] was 103% and the viability, T/C [4] was 112%. The viability, T/C (second compound 0.316 µM, first compound 0.000316 µM) was 99.6%, the viability, T/C (second compound 0.316 µM, first compound 0.001 µM) was 103% and the viability, T/C (second compound 0.316 µM, first compound 0.00316 µM) was 113%. It also gave a viability, T/C (second compound 0.316 µM, first compound 0.01 µM) of 101%, a viability, T/C [5] of 120% and a viability, T/C [6] of 106%. For the same compound, the viability, T/C (second compound 1 µM, first compound 0.000316 µM) was 97.5%, the viability, T/C (second compound 1 µM, first compound 0.001 µM) was 97.7% and the viability, T/C (second compound 1 µM, first compound 0.00316 µM) was 93.1%. For the same compound, the viability, T/C (second compound 1 µM, first compound 0.01 µM) was 93.9%, the viability, T/C [7] was 109% and the viability, T/C [8] was 114%. For the same compound, the viability, T/C (second compound 3.16 µM, first compound 0.000316 µM) was 103%, the viability, T/C (second compound 3.16 µM, first compound 0.001 µM) was 112% and the viability, T/C (second compound 3.16 µM, first compound 0.00316 µM) was 98.2%. It also gave a viability, T/C (second compound 3.16 µM, first compound 0.01 µM) of 104%, a viability, T/C (second compound 3.16 µM, first compound 0.0316 µM) of 110% and a viability, T/C (second compound 3.16 µM, first compound 0.1 µM) of 98.9%. The viability, T/C (second compound 10 µM, first compound 0.000316 µM) was 118%, the viability, T/C (second compound 10 µM, first compound 0.001 µM) was 105% and the viability, T/C (second compound 10 µM, first compound 0.00316 µM) was 101%. For the same compound, the viability, T/C (second compound 10 µM, first compound 0.01 µM) was 103%, the viability, T/C (second compound 10 µM, first compound 0.0316 µM) was 111% and the viability, T/C (second compound 10 µM, first compound 0.1 µM) was 108%.
`O=C(c1cc(Cc2n[nH]c(=O)c3ccccc23)ccc1F)N1CCN(C(=O)C2CC2)CC1` + CNC(C)C(=O)NC1CN(S(=O)(=O)c2cccc(S(=O)(=O)N3CCC4CCC(C(=O)NC(c5ccccc5)c5ccccc5)N4C(=O)C(NC(=O)C(C)NC)C3)c2)CCC2CCC(C(=O)NC(c3ccccc3)c3ccccc3)N2C1=O was tested, and the IC50 (second compound 0.00316 µM) was 4.73 µM, the IC50 (second compound 0.01 µM) was over 10 µM and the IC50 (second compound 0.0316 µM) was over 10 µM. For the same compound, the IC50 (second compound 0.1 µM) was over 10 µM, the IC50 (second compound 0.316 µM) was over 10 µM and the IC50 (second compound 1 µM) was over 10 µM. The viability, T/C [9] was 67%, the viability, T/C [10] was 61.7% and the viability, T/C [11] was 65.1%. It also gave a viability, T/C [12] of 66.5%, a viability, T/C [13] of 60.6% and a viability, T/C [14] of 29.6%. For the same compound, the viability, T/C [15] was 96%, the viability, T/C [16] was 93% and the viability, T/C [17] was 105%. It also gave a viability, T/C [18] of 101%, a viability, T/C [19] of 96.5% and a viability, T/C [20] of 66.3%. It also gave a viability, T/C [1] of 98.5%, a viability, T/C [2] of 93.7% and a viability, T/C [21] of 92%. The viability, T/C [22] was 99.9%, the viability, T/C [23] was 97.8% and the viability, T/C [24] was 69.8%. The viability, T/C [3] was 89.5%, the viability, T/C [4] was 97.6% and the viability, T/C [25] was 103%. For the same compound, the viability, T/C [26] was 105%, the viability, T/C [27] was 95.6% and the viability, T/C [28] was 62.4%. The viability, T/C [5] was 94.2%, the viability, T/C [6] was 99.9% and the viability, T/C [29] was 116%. It also gave a viability, T/C [30] of 111%, a viability, T/C [31] of 104% and a viability, T/C [32] of 66.7%. For the same compound, the viability, T/C [7] was 101%, the viability, T/C [8] was 91.2% and the viability, T/C [33] was 97%. It also gave a viability, T/C [34] of 104%, a viability, T/C [35] of 101% and a viability, T/C [36] of 56.6%.
`C#Cc1c(F)ccc2cc(O)cc(-c3ncc4c(N5CC6CCC(C5)N6)nc(OCC56CCCN5CC(F)C6)nc4c3F)c12` (stereo unspecified) + CNC(C)C(=O)NC1CN(S(=O)(=O)c2cccc(S(=O)(=O)N3CCC4CCC(C(=O)NC(c5ccccc5)c5ccccc5)N4C(=O)C(NC(=O)C(C)NC)C3)c2)CCC2CCC(C(=O)NC(c3ccccc3)c3ccccc3)N2C1=O gave an IC50 (second compound 0.00316 µM) of over 10 µM, an IC50 (second compound 0.01 µM) of over 10 µM and an IC50 (second compound 0.0316 µM) of over 10 µM. For the same compound, the IC50 (second compound 0.1 µM) was over 10 µM, the IC50 (second compound 0.316 µM) was over 10 µM and the IC50 (second compound 1 µM) was over 10 µM. It also gave a viability, T/C [9] of 101%, a viability, T/C [10] of 88.2% and a viability, T/C [11] of 103%. It also gave a viability, T/C [12] of 90.3%, a viability, T/C [13] of 93.5% and a viability, T/C [14] of 86.7%. It also gave a viability, T/C [15] of 96.9%, a viability, T/C [16] of 92.3% and a viability, T/C [17] of 101%. It also gave a viability, T/C [18] of 92.9%, a viability, T/C [19] of 91.8% and a viability, T/C [20] of 89.3%. It also gave a viability, T/C [1] of 105%, a viability, T/C [2] of 88.6% and a viability, T/C [21] of 101%. The viability, T/C [22] was 93.9%, the viability, T/C [23] was 102% and the viability, T/C [24] was 95.7%. The viability, T/C [3] was 106%, the viability, T/C [4] was 99.4% and the viability, T/C [25] was 104%. The viability, T/C [26] was 94.6%, the viability, T/C [27] was 94.5% and the viability, T/C [28] was 82.8%. For the same compound, the viability, T/C [5] was 109%, the viability, T/C [6] was 101% and the viability, T/C [29] was 89.8%. It also gave a viability, T/C [30] of 108%, a viability, T/C [31] of 107% and a viability, T/C [32] of 96%. The viability, T/C [7] was 90.3%, the viability, T/C [8] was 89.8% and the viability, T/C [33] was 98%. It also gave a viability, T/C [34] of 106%, a viability, T/C [35] of 103% and a viability, T/C [36] of 92.2%.
